Measurements published in patent US5997871A (priority 1996, dated 1999).

B1: pure β-chain: pure β-chain of hCG (protein, UniProt P0DN86 21-165, looked up)
Choriogonadotropin subunit …: SKEPLRPRCRPINATLAVEKEGCPVCITVNTTICAGYCPTMTRVLQGVLPALPQVVCNYRDVRFESIRLPGCPRGVNPVVSYAVALSCQCALCRRSTTDCGGPKDHPLTCDDPRFQDSSSSKAPPPSLPSPSRLPGPSDTPILPQ
B2: recombinant β-hCG (purified): purified recombinant β-hCG (protein, UniProt P0DN86 21-165, looked up)
Choriogonadotropin subunit …: B1 Choriogonadotropin subunit …
B3: partially purified β-hCG: native partially purified whole β-chain of hCG (protein, UniProt P0DN86 21-165, looked up)
Choriogonadotropin subunit …: B1 Choriogonadotropin subunit …

The molecules below were run on KS Y-1 or KS-SLK cells (assay: KS clonogenic assay in methylcellulose). Details: not given.
Assay type: cell-based, human
Description: Briefly, the KS Y-1 cells were obtained from mononuclear cells isolated from pleural effusion of an AIDS patient with KS involving the lungs. After the depletion of T lymphocytes, monocytes/macrophages and fibroblasts by the cytotoxicity method, using monoclonal antibodies against CD2, CD3, CD4, CD8, CD10 and CD14 membrane antigens and baby rabbit complement, the cells were cultured in the absence of exogenous growth factors to select for transformed cells.

Molecule	inhibition in clonogenic assays
β-hCG peptide 34-49: β-hCG peptide of amino acids 34-49 (CAGYCPTMTRVLQGVL; UniProt P0DN86 54-69, looked up, fragment)	little or no inhibition
β-hCG peptide 100-110: β-hCG peptide of amino acids 100-110 (CGGPKDHPLTC; UniProt P0DN86 120-130, looked up, fragment)	little or no inhibition
β-hCG peptide 38-57: β-hCG peptide of amino acids 38-57, overlaps satellin A1 (CPTMTRVLQGVLPALPQVVC; UniProt P0DN86 58-77, looked up, fragment)	little or no inhibition
β-hCG peptide 57-93: β-hCG peptide of amino acids 57-93 (CNYRDVRFESIRLPGCPRGVNPVVSYAVALSCQCALC; UniProt P0DN86 77-113, looked up, fragment)	little or no inhibition
α-hCG peptide 88-92: α-hCG peptide of amino acids 88-92 (YYHKS; UniProt P01215 112-116, looked up, fragment)	little or no inhibition
β-hCG peptide 74-95: β-hCG peptide of amino acids 74-95 (RGVNPVVSYAVALSCQCALCRR; UniProt P0DN86 94-115, looked up, fragment)	little or no inhibition
β-hCG peptide 7-40: β-hCG peptide of amino acids 7-40 (PRCRPINATLAVEKEGCPVCITVNTTICAGYCPT; UniProt P0DN86 27-60, looked up, fragment)	little or no inhibition

Same assay, conditions: 50 nmoles/ml; 2 KS neoplastic cell lines; 10 days

Molecule	anti-tumor (anti-KS) effects in clonogenic assays
β-hCG peptide 109-119: synthetic peptide of amino acid numbers 109-119 of the beta subunit of hCG (TCDDPRFQDSS)	strongest anti-tumor effects

Same assay, conditions: pure subunit chains

Molecule	anti-KS effect in clonogenic assays
B1	no anti-KS effect

The molecules below were run on KS tumors and cells (assay: Overall anti-KS activity of hCG preparations and peptides in vitro and in vivo). Details: not given.

Molecule	activities of native hCG preparations (anti-KS, anti-viral, pro-hematopoietic) mimicked or retained
β-hCG peptide 109-119: synthetic peptide of amino acid numbers 109-119 of the beta subunit of hCG (TCDDPRFQDSS)	mimicked

Same assay, conditions: in vitro and in vivo animal model data

Molecule	anti-KS effects
β-hCG peptide 109-119: synthetic peptide of amino acid numbers 109-119 of the beta subunit of hCG (TCDDPRFQDSS)	have anti-KS effects
B2	little or no effect
B3	have anti-KS effects

Same assay, conditions: in vitro and in vivo animal model data; listed as native partially purified whole β-chain

Molecule	anti-KS effects
B3	considerable anti-KS activity

These molecules were tested on HIV (assay: HIV assays (anti-viral effects)). Details: not given.

Molecule	anti-viral effects
β-hCG peptide 109-119: synthetic peptide of amino acid numbers 109-119 of the beta subunit of hCG (TCDDPRFQDSS)	strongest anti-viral effects

Each molecule was assayed on KS Y-1 induced tumors (assay: KS Y-1 tumors induced in immunodeficient mice). Details: compared to β-hCG peptides 45-57 and 109-119.

Molecule	anti-KS activity of other peptides
β-hCG peptide 34-49: β-hCG peptide of amino acids 34-49 (CAGYCPTMTRVLQGVL; UniProt P0DN86 54-69, looked up, fragment)	inactive
β-hCG peptide 100-110: β-hCG peptide of amino acids 100-110 (CGGPKDHPLTC; UniProt P0DN86 120-130, looked up, fragment)	inactive
β-hCG peptide 55-90: β-hCG peptide 55-90, forms part of the β-core (VVCNYRDVRFESIRLPGCPRGVNPVVSYAVALSCQC; UniProt P0DN86 75-110, looked up, fragment)	slight activity
β-hCG peptide 38-57: β-hCG peptide of amino acids 38-57, overlaps satellin A1 (CPTMTRVLQGVLPALPQVVC; UniProt P0DN86 58-77, looked up, fragment)	slight activity
β-hCG peptide 57-93: β-hCG peptide of amino acids 57-93 (CNYRDVRFESIRLPGCPRGVNPVVSYAVALSCQCALC; UniProt P0DN86 77-113, looked up, fragment)	inactive
β-hCG peptide 93-100: β-hCG peptide of amino acids 93-100 (CRRSTTDC; UniProt P0DN86 113-120, looked up, fragment)	inactive
α-hCG peptide 88-92: α-hCG peptide of amino acids 88-92 (YYHKS; UniProt P01215 112-116, looked up, fragment)	inactive
β-hCG peptide 74-95: β-hCG peptide of amino acids 74-95 (RGVNPVVSYAVALSCQCALCRR; UniProt P0DN86 94-115, looked up, fragment)	inactive
β-hCG peptide 6-40: β-hCG peptide 6-40, forms part of the β-core (RPRCRPINATLAVEKEGCPVCITVNTTICAGYCPT; UniProt P0DN86 26-60, looked up, fragment)	slight activity
